According to PubChem BioAssay (NCI):
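Cultured in 96-well plates, cells were exposed to test compound for 48 hours across five concentrations. TGI: concentration producing complete growth inhibition.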

How the values were obtained:
Assay in all cases: NCI-60 cell line screen, 48 h
786-0 renal = system: 786-0 renal
A498 renal = system: A498 renal
A549 NSCLC = system: A549 NSCLC
ACHN renal = system: ACHN renal
BT-549 breast = system: BT-549 breast
CAKI-1 renal = system: CAKI-1 renal
CCRF-CEM leukemia = system: CCRF-CEM leukemia
COLO 205 colon = system: COLO 205 colon
DU-145 prostate = system: DU-145 prostate
EKVX NSCLC = system: EKVX NSCLC
HCC-2998 colon = system: HCC-2998 colon
HCT-116 colon = system: HCT-116 colon
HCT-15 colon = system: HCT-15 colon
HL-60(TB) leukemia = system: HL-60(TB) leukemia
HOP-62 NSCLC = system: HOP-62 NSCLC
HOP-92 NSCLC = system: HOP-92 NSCLC
HS 578T breast = system: HS 578T breast
HT29 colon = system: HT29 colon
IGROV1 ovarian = system: IGROV1 ovarian
K-562 leukemia = system: K-562 leukemia
KM12 colon = system: KM12 colon
M14 melanoma = system: M14 melanoma
MALME-3M melanoma = system: MALME-3M melanoma
MCF7 breast = system: MCF7 breast
MDA-MB-231 breast = system: MDA-MB-231 breast
MDA-MB-435 = system: MDA-MB-435
MDA-N = system: MDA-N
MOLT-4 leukemia = system: MOLT-4 leukemia
NCI-H226 lung = system: NCI-H226 lung
NCI-H23 lung = system: NCI-H23 lung
NCI-H460 lung = system: NCI-H460 lung
NCI-H522 lung = system: NCI-H522 lung
NCI/ADR-RES ovarian = system: NCI/ADR-RES ovarian
OVCAR-3 ovarian = system: OVCAR-3 ovarian
OVCAR-4 ovarian = system: OVCAR-4 ovarian
OVCAR-5 ovarian = system: OVCAR-5 ovarian
OVCAR-8 ovarian = system: OVCAR-8 ovarian
PC-3 prostate = system: PC-3 prostate
RPMI-8226 leukemia = system: RPMI-8226 leukemia
RXF 393 renal = system: RXF 393 renal
SF-268 CNS = system: SF-268 CNS
SF-295 CNS = system: SF-295 CNS
SF-539 CNS = system: SF-539 CNS
SK-MEL-2 melanoma = system: SK-MEL-2 melanoma
SK-MEL-28 melanoma = system: SK-MEL-28 melanoma
SK-MEL-5 melanoma = system: SK-MEL-5 melanoma
SK-OV-3 ovarian = system: SK-OV-3 ovarian
SN12C renal = system: SN12C renal
SNB-19 CNS = system: SNB-19 CNS
SR leukemia = system: SR leukemia
T-47D breast = system: T-47D breast
TK-10 renal = system: TK-10 renal
U251 CNS = system: U251 CNS
UACC-257 melanoma = system: UACC-257 melanoma
UACC-62 melanoma = system: UACC-62 melanoma
UO-31 renal = system: UO-31 renal
LOX IMVI melanoma = system: LOX IMVI melanoma
SNB-75 CNS = system: SNB-75 CNS
SW-620 colon = system: SW-620 colon

Measured: TGI

Cc1ccc(-c2cc(N)n(-c3nc4c(c(=O)n(C)c(=O)n4C)n3C)n2)cc1
63.9 µM: HOP-62 NSCLC
not listed: LOX IMVI melanoma | SNB-75 CNS | SW-620 colon
> 100 µM: all other assays above

COc1ccc(OC)c2c(/C=C/c3ccc(N(C)C)cc3)ccnc12
8.11 µM: HCT-116 colon
9.28 µM: CCRF-CEM leukemia
6.07 µM: SF-539 CNS
3.86 µM: HL-60(TB) leukemia
not listed: RPMI-8226 leukemia | SR leukemia
> 10 µM: all other assays above
